Counter-ions that a name gives are not always drawn. Like-named read-outs stand apart in the source and are kept apart here.
Assays:
[1] = system: MLKL phosphorylation in HT29-L23 human colorectal adenocarcinoma cells; assay: MLKL Phosphorylation High-Content Assay; type: cell-based; settings: 6 h, necroptosis induced with TNFα, SMAC mimetic and Z-VAD, read-out: pMLKL (IC50)
Method in brief: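 HT29-L23 cells pretreated 30 min at 37 °C with compound (6.25 to 0.106 μM final), then necroptosis induced with TNFα 35 ng/mL, SMAC mimetic 700 nM and Z-VAD 140 nM for 6 h. Fixed cells immunostained for MLKL pS358 and imaged; IC50 and Ymax from 4-parameter logistic fit.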

[2] = target: His-GST-TVMV-hRIPK1(1-324) (Homo sapiens (Human), UniProt Q13546); assay: RIPK1 HTRF Binding Assay; settings: HTRF binding, 1 h at rt; read-out: RIPK1 (IC50)
Method in brief: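 HTRF probe-displacement binding: 1 nM His-GST-TVMV-hRIPK1(1-324) (baculovirus construct), 90.6 nM probe, 0.2 nM anti-GST-Tb in 20 mM HEPES, 10 mM MgCl2, 0.015% Brij-35, 4 mM DTT, 0.05 mg/mL BSA. Incubated 1 h at rt; FRET 520/495 nm ratio, inhibition relative to DMSO-only wells.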

Chain of His-GST-TVMV-hRIPK1(1-324) (Q13546 1-324): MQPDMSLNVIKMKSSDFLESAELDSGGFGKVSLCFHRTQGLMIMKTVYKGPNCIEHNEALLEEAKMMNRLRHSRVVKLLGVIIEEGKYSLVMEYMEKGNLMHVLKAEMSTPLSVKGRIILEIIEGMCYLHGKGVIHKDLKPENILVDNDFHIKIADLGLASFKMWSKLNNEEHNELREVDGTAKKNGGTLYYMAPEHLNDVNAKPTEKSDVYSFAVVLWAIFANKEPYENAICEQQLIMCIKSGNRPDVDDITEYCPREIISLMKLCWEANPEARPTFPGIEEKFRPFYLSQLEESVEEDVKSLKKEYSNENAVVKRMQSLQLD

Compound: Cc1nc(C)c(-c2ccc3nc(NC(=O)CO)cn3n2)cc1C(=O)N[C@H](C)c1cc(OC(F)(F)F)ccc1F [Example 95, N-[(1R)-1-[2-fluoro-5-(trifluoromethoxy)phenyl]ethyl]-5-[2-(2-hydroxyacet-amido)imidazo[1,2-b]pyridazin-6-yl]-2,6-dimethylpyridine-3-carboxamide]
- IC50 ([1]; Homo sapiens): 0.068 µM
- IC50 [2]: 0.03 µM

Compound: COc1ncc(-c2ccc3nc(NC(C)=O)cn3n2)cc1C(=O)NCc1cc(F)cc(F)c1OC1CCOC(C)C1 (stereo not shown) [Example 96, N-({3,5-difluoro-2-[(2-methyloxan-4-yl)oxy]phenyl}methyl)-5-{2-acetamidoimidazo[1,2-b]pyridazin-6-yl}-2-methoxypyridine-3-carboxamide]
- IC50 ([1]; Homo sapiens): 0.025 µM
- IC50 [2]: 0.01 µM

Compound: COc1ncc(-c2ccc3nc(NC(C)=O)cn3n2)cc1C(=O)NCc1cc(F)cc(F)c1OCC1CCC1 [Example 97, N-{[2-(cyclobutylmethoxy)-3,5-difluorophenyl]methyl}-5-{2-acetamidoimidazo[1,2-b]pyridazin-6-yl}-2-methoxypyridine-3-carboxamide]
- IC50 ([1]; Homo sapiens): 0.002 µM
- IC50 [2]: 0.002 µM

Compound: COc1ncc(-c2ccc3nc(NC(C)=O)cn3n2)cc1C(=O)NCc1cc(F)cc(F)c1O[C@H]1CCOC1 [Example 98, N-({3,5-difluoro-2-[(3S)-oxolan-3-yloxy]phenyl}methyl)-5-{2-acetamidoimidazo[1,2-b]pyridazin-6-yl}-2-methoxypyridine-3-carboxamide]
- IC50 ([1]; Homo sapiens): 0.039 µM
- IC50 [2]: 0.002 µM

Compound: COc1ncc(-c2ccc3nc(NC(C)=O)cn3n2)cc1C(=O)NCc1cc(F)cc(F)c1OC1CCCOC1 (stereo not shown) [Example 99, N-{[3,5-difluoro-2-(oxan-3-yloxy)phenyl]methyl}-5-{2-acetamidoimidazo[1,2-b]pyridazin-6-yl}-2-methoxypyridme-3-carboxamide]
- IC50 [1]: 0.024 µM
- IC50 [2]: 0.006 µM

Compound: COc1ccc(F)c(CNC(=O)c2cc(-c3ccc4nc(NC(C)=O)cn4n3)cnc2OC)c1 [Example 100, 5-{2-acetamidoimidazo[1,2-b]pyridazin-6-yl}-N-[(2-fluoro-5-methoxyphenyl)methyl]-2-methoxypyridine-3-carboxamide]
- IC50 ([1]; Homo sapiens): 0.203 µM
- IC50 [2]: 0.056 µM

Compound: COc1ncc(-c2ccc3nc(NC(C)=O)cn3n2)cc1C(=O)NCc1c(F)cccc1OCC(F)(F)F [Example 102, 5-{2-acetamidoimidazo[1,2-b]pyridazin-6-yl}-N-{[2-fluoro-6-(2,2,2-trifluoroethoxy)phenyl]methyl}-2-methoxypyridine-3-carboxamide]
- IC50 ([1]; Homo sapiens): 0.01 µM
- IC50 [2]: 0.007 µM

Compound: COc1ncc(-c2ccc3nc(NC(C)=O)cn3n2)cc1C(=O)NCc1cc(F)cc(F)c1OC1CC(C)OC(C)C1 (stereo not shown) [Example 103, N-({2-[(2,6-dimethyloxan-4-yl)oxy]-3,5-difluorophenyl}methyl)-5-{2-acetamidoimidazo[1,2-b]pyridazin-6-yl}-2-methoxypyridine-3-carboxamide]
- IC50 ([1]; Homo sapiens): 0.188 µM
- IC50 [2]: 0.051 µM

Compound: COc1ncc(-c2ccc3nc(NC(C)=O)cn3n2)cc1C(=O)N[C@H](C)c1ccccc1C(F)(F)F [Example 104, 5-{2-acetamidoimidazo[1,2-b]pyridazin-6-yl}-2-methoxy-N-[(1R)-1-[2-(trifluoromethyl)phenyl]ethyl]pyridine-3-carboxamide]
- IC50 ([1]; Homo sapiens): 0.073 µM
- IC50 [2]: 0.036 µM

Compound: COc1ncc(-c2ccc3nc(NC(C)=O)cn3n2)cc1C(=O)NCc1cc(F)ccc1OCC(F)(F)F [Example 105, 5-{2-acetamidoimidazo[1,2-b]pyridazin-6-yl}-N-{[5-fluoro-2-(2,2,2-trifluoroethoxy)phenyl]methyl}-2-methoxypyridine-3-carboxamide]
- IC50 ([1]; Homo sapiens): 0.017 µM
- IC50 [2]: 0.005 µM

Compound: COc1ncc(-c2ccc3nc(NC(C)=O)cn3n2)cc1C(=O)N[C@@H](C)c1cc(C(F)(F)F)ccc1F [Example 106, 5-{2-acetamidoimidazo[1,2-b]pyridazin-6-yl}-N-[(1S)-1-[2-fluoro-5-(trifluoromethyl)phenyl](2,2,2-deutero)ethyl]-2-methoxypyridine-3-carboxamide]
- IC50 [1]: 0.095 µM
- IC50 [2]: 0.084 µM

Compound: COc1ncc(-c2ccc3nc(NC(C)=O)cn3n2)cc1C(=O)N[C@H](C)c1cc(C(F)(F)F)ccc1F [Example 107, 5-{2-acetamidoimidazo[1,2-b]pyridazin-6-yl}-N-[(1R)-1-[2-fluoro-5-(trifluoromethyl)phenyl](2,2,2-deutero)ethyl]-2-methoxypyridine-3-carboxamide]
- IC50 [1]: 0.306 µM
- IC50 [2]: 0.193 µM

Compound: COc1ncc(-c2ccc3nc(NC(C)=O)cn3n2)cc1C(=O)NCc1ccccc1OCC(F)(F)F [Example 108, 5-{2-acetamidoimidazo[1,2-b]pyridazin-6-yl}-2-methoxy-N-{[2-(2,2,2-trifluoroethoxy)phenyl]meth-yl}pyridine-3-carboxamide]
- IC50 ([1]; Homo sapiens): 0.028 µM
- IC50 [2]: 0.004 µM

Compound: COc1ncc(-c2ccc3nc(NC(C)=O)cn3n2)cc1C(=O)N[C@H](C)c1cc(OC(F)(F)F)ccc1F [Example 109, 5-{2-acetamidoimidazo[1,2-b]pyridazin-6-yl}-N-[(1R)-1-[2-fluoro-5-(trifluoromethoxy)phenyl](2,2,2-deutero)ethyl]-2-methoxypyridine-3-carboxamide]
- IC50 [1]: 0.085 µM
- IC50 [2]: 0.032 µM

Compound: COc1ncc(-c2ccc3nc(NC(C)=O)cn3n2)cc1C(=O)NCc1cccc(C(F)(F)F)c1 [Example 110, 5-{2-acetamidoimidazo[1,2-b]pyridazin-6-yl}-2-methoxy-N-{[3-(trifluoromethyl)phen-yl](deutero)methyl}pyridine-3-carboxamide]
- IC50 [1]: 0.113 µM
- IC50 [2]: 0.027 µM

Compound: COc1ncc(-c2ccc3nc(NC(C)=O)cn3n2)cc1C(=O)NCc1cc(C(F)(F)F)ccc1F [Example 111, 5-{2-acetamidoimidazo[1,2-b]pyridazin-6-yl}-N-{[2-fluoro-5-(trifluoromethyl)phen-yl](deutero)methyl}-2-methoxypyridine-3-carboxamide]
- IC50 [1]: 0.036 µM
- IC50 [2]: 0.019 µM

Compound: COc1ncc(-c2ccc3nc(NC(C)=O)cn3n2)cc1C(=O)N[C@H](C)c1cccc(OC(F)(F)F)c1 [Example 112, 5-{2-acetamidoimidazo[1,2-b]pyridazin-6-yl}-2-methoxy-N-[(1R)-1-[3-(trifluoromethoxy)phenyl](2,2,2-deutero)ethyl]pyridine-3-carboxamide]
- IC50 [1]: 0.073 µM
- IC50 [2]: 0.017 µM

Compound: COc1ncc(-c2ccc3nc(NC(C)=O)cn3n2)cc1C(=O)NCc1ccccc1CN1CCOCC1 [Example 113, 5-{2-acetamidoimidazo[1,2-b]pyridazin-6-yl}-2-methoxy-N-({2-[(morpholin-4-yl)methyl]phenyl}methyl)pyridine-3-carboxamide, 2 TFA]
- IC50 [1]: 0.298 µM
- IC50 [2]: 0.038 µM

Compound: COc1ncc(-c2ccc3nc(NC(C)=O)cn3n2)cc1C(=O)NCc1ccccc1COC(C)C [Example 114, 5-{2-acetamidoimidazo[1,2-b]pyridazin-6-yl}-2-methoxy-N-({2-[(propan-2-yloxy)methyl]phenyl}meth-yl)pyridine-3-carboxamide, TFA]
- IC50 [1]: 0.033 µM
- IC50 [2]: 0.008 µM

Compound: COc1ncc(-c2ccc3nc(NC(C)=O)cn3n2)cc1C(=O)NCc1cc(F)cc(F)c1OC1COC1 [Example 115, N-{[3,5-difluoro-2-(oxetan-3-yloxy)phenyl]methyl}-5-{2-acetamidoimidazo[1,2-b]pyridazin-6-yl}-2-methoxypyridine-3-carboxamide]
- IC50 ([1]; Homo sapiens): 0.065 µM
- IC50 [2]: 0.012 µM

Compound: COc1ncc(-c2ccc3nc(NC(C)=O)cn3n2)cc1C(=O)NCc1cc(F)cc(F)c1OCC(C)C [Example 116, N-{[3,5-difluoro-2-(2-methylpropoxy)phenyl]methyl}-5-{2-acetamidoimidazo[1,2-b]pyridazin-6-yl}-2-methoxypyridine-3-carboxamide]
- IC50 ([1]; Homo sapiens): 0.003 µM
- IC50 [2]: 0.01 µM

Compound: COc1ncc(-c2ccc3nc(NC(C)=O)cn3n2)cc1C(=O)NCc1ccccc1OCC(C)C [Example 117, 5-{2-acetamidoimidazo[1,2-b]pyridazin-6-yl}-2-methoxy-N-{[2-(2-methyl-propoxy)phenyl]methyl}pyridine-3-carboxamide]
- IC50 ([1]; Homo sapiens): 0.019 µM
- IC50 [2]: 0.006 µM

Compound: COc1ncc(-c2ccc3nc(NC(C)=O)cn3n2)cc1C(=O)NCc1cc(F)cc(F)c1OC1CC1 [Example 118, N-[(2-cyclopropoxy-3,5-difluorophenyl)methyl]-5-{2-acetamidoimidazo[1,2-b]pyridazin-6-yl}-2-methoxypyridine-3-carboxamide]
- IC50 ([1]; Homo sapiens): 0.028 µM
- IC50 [2]: 0.002 µM

Compound: COc1ncc(-c2ccc3nc(NC(C)=O)cn3n2)cc1C(=O)NCC[C@H](O)c1ccc(Cl)cc1 [Example 119, N-[(3S)-3-(4-chlorophenyl)-3-hydroxypropyl]-5-{2-acetamidoimidazo[1,2-b]pyridazin-6-yl}-2-methoxypyridine-3-carboxamide]
- IC50 ([1]; Homo sapiens): 0.094 µM
- IC50 [2]: 0.116 µM

Compound: COc1ncc(-c2ccc3nc(NC(C)=O)cn3n2)cc1C(=O)NCc1ccc(F)cc1OC(F)(F)F [Example 120, 5-{2-acetamidoimidazo[1,2-b]pyridazin-6-yl}-N-{[4-fluoro-2-(trifluoromethoxy)phenyl]methyl}-2-methoxypyridine-3-carboxamide]
- IC50 ([1]; Homo sapiens): 0.383 µM
- IC50 [2]: 0.17 µM

Compound: COc1ncc(-c2ccc3nc(NC(C)=O)cn3n2)cc1C(=O)NCc1cc(F)cc(F)c1OCC1CC1 [Example 121, N-({2-[cyclopropyl(deutero)methoxy]-3,5-difluorophenyl}methyl)-5-{2-acetamidoimidazo[1,2-b]pyridazin-6-yl}-2-methoxypyridine-3-carboxamide]
- IC50 [1]: 0.009 µM
- IC50 [2]: 0.003 µM

— US11440913B2, “Aminoimidazopyridazines as kinase inhibitors” (BRISTOL-MYERS SQUIBB COMPANY, priority 2017, dated 2022)
